14 molecules from patent US10954252B1, “Inhibitors of human immunodeficiency virus replication” (ViiV HEALTHCARE UK (NO.5) LIMITED, priority 2017, dated 2021) can be followed below.

Series [1] deals with recombinant NL4-3 virus (nef section replaced with Renilla luciferase gene) in MT-2 cells. The series can be described thus: HIV cell culture assay (antiviral activity, luciferase readout). It counts as cell-based. To be noted: MT-2 cells infected for 4-5 days with recombinant NL4-3 luciferase virus. The procedure:
HIV cell culture assay—MT-2 cells, 293T cells and the proviral DNA clone of NL4-3 virus were obtained from the NIH AIDS Research and Reference Reagent Program. MT-2 cells were propagated in RPMI 1640 media supplemented with 10% heat inactivated fetal bovine serum (FBS), 100 μg/ml penicillin G and up to 100 units/mL streptomycin. The 293T cells were propagated in DMEM media supplemented with 10% heat inactivated FBS, 100 μg/mL penicillin G and 100 μg/mL streptomycin. A recombinant NL4-3 proviral clone, in which a section of the nef gene was replaced with the Renilla luciferase gene, was used to make the reference virus used in these studies. The recombinant virus was prepared through transfection of the recombinant NL4-3 proviral clone into 293T cells using Transit-293 Transfection Reagent from Mirus Bio LLC (Madison, Wis.). Supernatent was harvested after 2-3 days and the amount of virus present was titered in MT-2 cells using luciferase enzyme activity as a marker by measuring luciferase enzyme activity. Luciferase was quantitated using the EnduRen Live Cell Substrate from Promega (Madison, Wis.). Antiviral activities of compounds toward the recombinant virus were quantified by measuring luciferase activity in MT-2 cells infected for 4-5 days with the recombinant virus in the presence of serial dilutions of the compound.
The 50% effective concentration (ECs) was calculated by using the exponential form of the median effect equation where (Fa)=1/[1+(ED50/drug conc.)^m] (Johnson Va., Byington RT. Infectivity Assay. In Techniques in HIV Research. ed. Aldovini A, Walker BD. 71-76. New York: Stockton Press. 1990).

Series [2] in a line: Compound cytotoxicity, XTT-based colorimetric assay. The class given is cell-based. To be noted: human, uninfected MT2 cells. As for the experimental part: Compound cytotoxicity and the corresponding CC50 values were determined using the same protocol as described in the antiviral assay except that uninfected cells were used. Cytotoxicity was assessed on day 4 in uninfected MT2 cells by using a XTT (2,3-bis[2-Methoxy-4-nitro-5-sulfophenyl]-2H-tetrazolium-5-carboxyanilide inner salt)-based colorimetric assay (Sigma-Aldrich, St Louis, Mo.). Biological data for select compounds of the invention are contained in Table 1 and Table 1a

Each structure is given as a SMILES string.

Broadly, the EC50 is the concentration giving half of the maximal effect. In general, CC50 refers to the concentration that lowers cell viability or growth by half. Regarding `COc1ccc2c(=O)n(-c3ccc(Cl)c4c(NS(C)(=O)=O)nn(CC(F)F)c34)c([C@H](Cc3cc(F)cc(F)c3)NC(=O)Cn3ccc(C4CC4)n3)nc2n1` (atropisomer, axis not shown) [Example 55.1, N-[(1S)-1-{3-[4-chloro-1-(2,2-difluoroethyl)-3-methanesulfonamido-1H-indazol-7-yl]-7-methoxy-4-oxo-3H,4H-pyrido[2,3-d]pyrimidin-2-yl}-2-(3,5-difluorophenyl)ethyl]-2-(3-cyclopropyl-1H-pyrazol-1-yl)acetamide], in series [1] (Table 1a), the EC50 was found to be 28.5 nM. In series [2] (Table 1a, day 4, XTT), this molecule had a CC50 at 4 days above 1000 nM.
Take `CC(C)c1ccc(-c2c(C(Cc3cc(F)cc(F)c3)NC(=O)Cn3nc(C(F)F)c4c3C(F)(F)[C@@H]3C[C@H]43)ncc3[nH]ncc23)cn1` (mixture of isomers) [Example 10.1]: in series [1] (Renilla, NL43, Table 1), the EC50 amounted to 140 nM. In series [2] (Table 1, day 4, XTT), the CC50 at 4 days is above 10000 nM.
Take `Cn1nc(NS(C)(=O)=O)c2c(Cl)ccc(-n3c(C(Cc4cc(F)cc(F)c4)NC(=O)Cn4nc(C(F)F)c5c4C(F)(F)[C@@H]4C[C@H]54)nc4ncc(C#N)cc4c3=O)c21` (mixture of isomers) [Example 37.2, N-(1-(3-(4-chloro-1-methyl-3-(methylsulfonamido)-1H-indazol-7-yl)-6-cyano-4-oxo-3,4-dihydropyrido[2,3-d]pyrimidin-2-yl)-2-(3,5-difluorophenyl)ethyl)-2-((3bS,4aR)-3-(difluoromethyl)-5,5-difluoro-3b,4,4a,5-tetrahydro-1H-cyclopropa[3,4]cyclopenta[1,2-c]pyrazol-1-yl)acetamide]: the EC50 in series [1] (Renilla, NL43, Table 1a) was determined as 0.54 nM. The molecule also had a CC50 at 4 days in series [2] (Table 1a, day 4, XTT) above 10000 nM.
As for `Cn1nc(NS(C)(=O)=O)c2c(Cl)ccc(-n3c(C(Cc4cc(F)cc(F)c4)NC(=O)Cn4nc(C(F)F)c5c4C(F)(F)[C@@H]4C[C@H]54)nc4nc(C#N)ccc4c3=O)c21` (mixture of isomers) [Example 40.1, N-(1-(3-(4-chloro-1l-methyl-3-(methylsulfonamido)-1H-indazol-7-yl)-7-cyano-4-oxo-3,4-dihydropyrido[2,3-d]pyrimidin-2-yl)-2-(3,5-difluorophenyl)ethyl)-2-((3bS,4aR)-3-(difluoromethyl)-5,5-difluoro-3b,4,4a,5-tetrahydro-1H-cyclopropa[3,4]cyclopenta[1,2-c]pyrazol-1-yl)acetamide], the EC50 in series [1] (Renilla, NL43, Table 1a) was 0.58 nM. For the same molecule, the CC50 at 4 days in series [2] (Table 1a, day 4, XTT) was above 1000 nM.
Consider `Cc1ccc2c(=O)n(-c3ccc(Cl)c4c(NS(C)(=O)=O)nn(C)c34)c(C(Cc3cc(F)cc(F)c3)NC(=O)Cn3nc(C(F)F)c4c3C(F)(F)[C@@H]3C[C@H]43)nc2n1` (mixture of isomers) [Example 41.1], for which the EC50 in series [1] (Renilla, NL43, Table 1a) came to 21.2 nM. Further, the CC50 at 4 days in series [2] (Table 1a, day 4, XTT) is above 10000 nM.
As for `Cc1ccc2c(=O)n(-c3ccc(Cl)c4c(NS(C)(=O)=O)nn(C)c34)c([C@H](Cc3cc(F)cc(F)c3)NC(=O)Cn3nc(C(F)F)c4c3C(F)(F)[C@@H]3C[C@H]43)nc2n1` (mixture of isomers) [Example 41.2, N-[(1S)-1-[3-(4-chloro-3-methanesulfonamido-1-methyl-1H-indazol-7-yl)-7-methyl-4-oxo-3H,4H-pyrido[2,3-d]pyrimidin-2-yl]-2-(3,5-difluorophenyl)ethyl]-2-[(2S,4R)-9-(difluoromethyl)-5,5-difluoro-7,8-diazatricyclo[4.3.0.0^2,4]nona-1(6),8-dien-7-yl]acetamide], the EC50 in series [1] (Renilla, NL43, Table 1a) amounted to 0.022 nM. The CC50 at 4 days in series [2] (Table 1a, day 4, XTT) was above 10000 nM.
As for `Cc1cc(C)c2c(=O)n(-c3ccc(Cl)c4c(NS(C)(=O)=O)nn(C)c34)c(C(Cc3cc(F)cc(F)c3)NC(=O)Cn3nc(C(F)F)c4c3C(F)(F)[C@@H]3C[C@H]43)nc2n1` (mixture of isomers) [Example 42.1], the EC50 in series [1] (Renilla, NL43, Table 1a) was determined as 12 nM. Moreover, the CC50 at 4 days in series [2] (Table 1a, day 4, XTT) is above 10000 nM.
`CC(C)n1nc(NS(C)(=O)=O)c2c(Cl)ccc(-n3c(C(Cc4cc(F)cc(F)c4)NC(=O)Cn4nc(C(F)F)c5c4C(F)(F)[C@@H]4C[C@H]54)nc4ncccc4c3=O)c21` (mixture of isomers) [Example 43.1]: the concentration for a half-maximal effect (EC50) in series [1] (Renilla, NL43, Table 1a) was 30 nM. In series [2] (Table 1a, day 4, XTT), this molecule registered a CC50 at 4 days above 10000 nM.
Taken in the same sequence, the figures for `CC(C)n1nc(NS(C)(=O)=O)c2c(Cl)ccc(-n3c([C@H](Cc4cc(F)cc(F)c4)NC(=O)Cn4nc(C(F)F)c5c4C(F)(F)[C@@H]4C[C@H]54)nc4ncccc4c3=O)c21` (mixture of isomers) [Example 43.2, N-[(1S)-1-{3-[4-chloro-3-methanesulfonamido-1-(propan-2-yl)-1H-indazol-7-yl]-4-oxo-3H,4H-pyrido[2,3-d]pyrimidin-2-yl}-2-(3,5-difluorophenyl)ethyl]-2-[(2S,4R)-9-(difluoromethyl)-5,5-difluoro-7,8-diazatricyclo[4.3.0.0^2,4]nona-1(6),8-dien-7-yl]acetamide] were 0.132 nM and above 10000 nM.
Regarding `O=C(Cn1nc(C(F)F)c2c1C(F)(F)[C@@H]1C[C@H]21)N[C@@H](Cc1cc(F)cc(F)c1)c1nc2ncccc2c(=O)n1-c1ccc(Cl)c2c(NS(=O)(=O)C3CC3)nn(CC(F)F)c12` (mixture of isomers) [Example 45.2, N-[(1S)-1-{3-[4-chloro-3-cyclopropanesulfonamido-1-(2,2-difluoroethyl)-1H-indazol-7-yl]-4-oxo-3H,4H-pyrido[2,3-d]pyrimidin-2-yl}-2-(3,5-difluorophenyl)ethyl]-2-[(2S,4R)-9-(difluoromethyl)-5,5-difluoro-7,8-diazatricyclo[4.3.0.0^2,4]nona-1(6),8-dien-7-yl]acetamide], the EC50 in series [1] (Renilla, NL43, Table 1a) stood at 0.024 nM. Moreover, the CC50 at 4 days in series [2] (Table 1a, day 4, XTT) is above 1000 nM.
Turning to `COc1cccc2c(=O)n(-c3ccc(Cl)c4c(NS(C)(=O)=O)nn(C)c34)c([C@H](Cc3cc(F)cc(F)c3)NC(=O)Cn3nc(C(F)F)c4c3C(F)(F)[C@@H]3C[C@H]43)nc12` (single isomer, unassigned) [Example 103], in series [2] (Table 1a, day 4, XTT), the CC50 at 4 days is above 1000 nM.
Same read-out and setting: the value for `Cn1nc(NS(C)(=O)=O)c2c(Cl)ccc(-n3c([C@H](Cc4cc(F)cc(F)c4)NC(=O)Cn4ccc(C5CC5)n4)nc4cc(C(F)(F)F)ccc4c3=O)c21` (single isomer, unassigned) [Example 150] was above 1000 nM; that for `COc1cc(F)c2c(=O)n(-c3ccc(Cl)c4c(NS(C)(=O)=O)nn(C)c34)c([C@H](Cc3cc(F)cc(F)c3)NC(=O)Cn3ccc(C4CC4)n3)nc2c1` [Example 188, (S)—N-(1-(3-(4-chloro-1-methyl-3-(methylsulfonamido)-1H-indazol-7-yl)-5-fluoro-7-methoxy-4-oxo-3,4-dihydroquinazolin-2-yl)-2-(3,5-difluorophenyl)ethyl)-2-(3-cyclopropyl-1H-pyrazol-1-yl)acetamide] was above 1000 nM; that for `Cn1nc(NS(C)(=O)=O)c2c(Cl)ccc(-n3c([C@H](Cc4cc(F)cc(F)c4)NC(=O)Cn4ccc(C5CC5)n4)nc4cc(CS(C)(=O)=O)ccc4c3=O)c21` [Example 205, (S)—N-(1-(3-(4-chloro-1-methyl-3-(methylsulfonamido)-1H-indazol-7-yl)-7-((methylsulfonyl)methyl)-4-oxo-3,4-dihydroquinazolin-2-yl)-2-(3,5-difluorophenyl)ethyl)-2-(3-cyclopropyl-1H-pyrazol-1-yl)acetamide] was above 1000 nM.
